Test results taken from patent US7132278B2, “PAS kinase” (Board of Regents, The University of Texas System, priority 2001, dated 2006).

Target: PASK (Homo sapiens, UniProt Q96RG2, F1266C/Y899H)
Details: read-out: Km for PASK; ATP as co-substrate
Procedure: One HTS assay kinase assay we employ is a robust and simple, non-radioactive chemiluminescent assay that measures the ability of the human enzyme to phosphorylate a biotinylated derivative of the AMARA peptide. The enzyme is expressed in baculovirus and purified by affinity and ion-exchange chromatography under routine conditions. Assay buffer is composed of 20 mM Tris-HC1, pH 7.5, 10 mM MgC12, 2 mM EGTA, 0.1% NP-40, 0.5 mM benzamidine, 1 mM NaF and 10 mM DTT. Enzyme is added to this buffer at a concentration determined to be in the linear range of activity (10 ng per microtiter plate well). For the most robust and sensitive kinase assay, we use an ATP concentration matching the Kmfor PASK (2.5 mM). After dispensing 80 ul of the enzyme/buffer mix per well in Costar 96-well microtiter plates (coated with Neutravidin at 0.5 mg/ml at room temperature for 2 hr), 10 μl of test compounds is added at a final concentration of 1 μM compound. Compounds are diluted in DMSO from master plates stored in DMSO at 10 mM. Following compound addition, the reactions are initiated by addition of 10 μl of biotinylated AMARA peptide and ATP such that the final concentration of substrate and ATP are 1 mM and 2.5 mM respectively. […] Reactions are developed by addition of 100 μl of Super Signal substrate (Pierce) and read colorimetrically using a Wallac Victor2, 1420 Multilabel Counter.

PASK, sequence (Q96RG2 whole entry Y899H/F1266C): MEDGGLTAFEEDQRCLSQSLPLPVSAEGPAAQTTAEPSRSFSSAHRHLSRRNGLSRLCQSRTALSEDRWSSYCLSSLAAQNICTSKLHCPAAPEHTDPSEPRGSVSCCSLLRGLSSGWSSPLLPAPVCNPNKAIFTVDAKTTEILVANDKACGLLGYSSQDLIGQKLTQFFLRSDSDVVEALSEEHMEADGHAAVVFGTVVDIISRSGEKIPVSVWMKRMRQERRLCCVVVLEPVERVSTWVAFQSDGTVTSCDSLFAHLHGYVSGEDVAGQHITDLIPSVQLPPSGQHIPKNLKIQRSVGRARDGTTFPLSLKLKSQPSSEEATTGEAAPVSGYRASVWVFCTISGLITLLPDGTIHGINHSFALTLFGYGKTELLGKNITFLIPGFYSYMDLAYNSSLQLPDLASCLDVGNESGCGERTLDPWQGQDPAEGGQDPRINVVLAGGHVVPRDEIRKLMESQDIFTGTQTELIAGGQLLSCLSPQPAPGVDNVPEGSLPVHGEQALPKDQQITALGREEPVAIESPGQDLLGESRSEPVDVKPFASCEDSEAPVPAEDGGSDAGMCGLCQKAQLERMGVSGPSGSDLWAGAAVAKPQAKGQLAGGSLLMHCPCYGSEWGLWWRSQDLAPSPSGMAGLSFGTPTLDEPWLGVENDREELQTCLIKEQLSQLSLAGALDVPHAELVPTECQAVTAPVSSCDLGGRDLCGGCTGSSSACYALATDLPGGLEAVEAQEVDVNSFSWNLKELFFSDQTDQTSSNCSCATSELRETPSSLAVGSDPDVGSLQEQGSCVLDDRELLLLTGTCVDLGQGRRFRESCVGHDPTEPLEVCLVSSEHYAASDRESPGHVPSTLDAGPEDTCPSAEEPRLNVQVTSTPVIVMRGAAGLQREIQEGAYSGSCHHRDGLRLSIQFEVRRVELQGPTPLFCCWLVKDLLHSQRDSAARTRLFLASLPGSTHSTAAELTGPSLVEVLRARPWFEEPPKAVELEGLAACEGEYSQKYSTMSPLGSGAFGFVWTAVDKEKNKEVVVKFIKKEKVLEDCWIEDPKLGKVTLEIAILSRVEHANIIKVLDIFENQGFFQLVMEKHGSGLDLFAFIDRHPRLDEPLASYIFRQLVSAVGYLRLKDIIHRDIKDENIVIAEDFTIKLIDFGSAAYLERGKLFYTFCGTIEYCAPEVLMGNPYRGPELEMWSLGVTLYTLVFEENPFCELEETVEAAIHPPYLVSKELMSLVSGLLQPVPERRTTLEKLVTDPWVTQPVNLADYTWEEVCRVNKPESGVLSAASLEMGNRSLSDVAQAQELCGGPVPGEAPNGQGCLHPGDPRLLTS

Question: With Nc1ncnc2c1ncn2[C@@H]1O[C@H](COP(=O)(O)OP(=O)(O)OP(=O)(O)O)[C@@H](O)[C@H]1O [ATP] as the compound, how does the Km read?
Answer: 2500 µM
